Test results published in PMC5058426 (Journal of porphyrins and phthalocyanines, 2016).

Columns and labels:
[1] = Fluorescence quantum yield in DMF; assay type: physicochemical; conditions: room temperature, calculated using porphyrin 3 as standard (0.102)
HEp2 cells [2] = test: Time-dependent cellular uptake; assay type: cell-based, human; conditions: 10 μM; for cellular accumulation compared with MPIX 3: all time points over 24 h
[3] = molecular target: EGFR extracellular domain (Homo sapiens, UniProt P00533); test: SPR binding to immobilized EGFR; conditions: SPR sensorgram, 400 to 500 s, 100 μM
HEp2 cells [4] = test: Phototoxicity, Cell Titer Blue assay; assay type: cell-based, human; conditions: 24 h
[5] = reference standard value; cited from earlier work

Sequence of EGFR extracellular domain (P00533 25-645 limits assumed): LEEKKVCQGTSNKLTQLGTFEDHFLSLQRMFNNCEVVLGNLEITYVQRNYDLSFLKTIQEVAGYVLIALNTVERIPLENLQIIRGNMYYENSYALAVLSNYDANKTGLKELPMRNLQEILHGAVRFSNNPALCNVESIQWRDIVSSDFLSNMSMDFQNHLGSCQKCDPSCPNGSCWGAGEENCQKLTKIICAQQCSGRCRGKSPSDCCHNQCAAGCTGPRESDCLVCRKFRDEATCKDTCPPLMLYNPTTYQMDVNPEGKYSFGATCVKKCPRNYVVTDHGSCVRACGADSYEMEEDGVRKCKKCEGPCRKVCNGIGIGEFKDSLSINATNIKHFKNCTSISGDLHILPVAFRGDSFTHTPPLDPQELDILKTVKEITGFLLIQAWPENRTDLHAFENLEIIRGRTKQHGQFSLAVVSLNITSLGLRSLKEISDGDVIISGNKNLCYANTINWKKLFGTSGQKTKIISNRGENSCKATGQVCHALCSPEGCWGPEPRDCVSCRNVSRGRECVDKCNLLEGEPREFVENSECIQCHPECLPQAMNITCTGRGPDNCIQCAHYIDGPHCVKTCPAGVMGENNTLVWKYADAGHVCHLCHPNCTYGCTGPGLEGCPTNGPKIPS

Compound: CCC1=C(C)c2cc3[nH]c(cc4nc(cc5[nH]c(cc1n2)c(C)c5CCC(=O)NCC(=O)N[C@@H](Cc1ccc(O)cc1)C(=O)N[C@@H](Cc1c[nH]cn1)C(=O)N[C@@H](Cc1c[nH]c2ccccc12)C(=O)N[C@@H](Cc1ccc(O)cc1)C(=O)NCC(=O)N[C@@H](Cc1ccc(O)cc1)C(=O)N[C@H](C(=O)N1CCC[C@H]1C(=O)N[C@@H](CCC(N)=O)C(=O)N[C@@H](CC(N)=O)C(=O)N[C@H](C(=O)N[C@H](C(N)=O)[C@@H](C)CC)C(C)C)[C@@H](C)O)C(CCC(=O)O)=C4C)c(C)c3CC [Compound 5]
- Φf (fluorescence quantum yield) [1]: 0.124
- cellular accumulation compared with MPIX 3 (HEp2 cells [2]): much larger extent than MPIX 3
- dissociation rate from EGFR [3]: slower dissociation rates

Compound: GYHWYGYTPQNVI [Compound 8]
- Φf (fluorescence quantum yield) [1]: 0.132
- cellular uptake relative to MPIX 3 (HEp2 cells [2]; after 24 h): about 8 fold
- cellular accumulation compared with MPIX 3 (HEp2 cells [2]): much larger extent than MPIX 3

Compound: LARLLT [Compound 7]
- Φf (fluorescence quantum yield) [1]: 0.124
- cellular accumulation compared with MPIX 3 (HEp2 cells [2]): accumulated significantly less

Compound: CCC1=C(C)c2cc3[nH]c(cc4nc(cc5[nH]c(cc1n2)c(C)c5CCC(=O)N[C@@H](CC(C)C)C(=O)N[C@@H](C)C(=O)N[C@@H](CCCNC(=N)N)C(=O)N[C@@H](CC(C)C)C(=O)N[C@@H](CC(C)C)C(=O)N[C@H](C(N)=O)[C@@H](C)O)C(CCC(=O)N[C@@H](CC(C)C)C(=O)N[C@@H](C)C(=O)N[C@@H](CCCNC(=N)N)C(=O)N[C@@H](CC(C)C)C(=O)N[C@@H](CC(C)C)C(=O)N[C@H](C(N)=O)[C@@H](C)O)=C4C)c(C)c3CC [Compound 4]
- IC50 (HEp2 cells [4]): 50 µM
- cellular accumulation compared with MPIX 3 (HEp2 cells [2]): much larger extent than MPIX 3
- cellular accumulation ranking at early times (HEp2 cells [2]; times < 4 h): accumulated the most

Compound: CCC1=C(C)c2cc3[nH]c(cc4[nH]c(cc5nc(cc1n2)C(C)=C5CC)c(C)c4CCC(=O)O)c(CCC(=O)O)c3C [Compound 3, mesoporphyrin IX]
- ΦF (fluorescence quantum yield) [5]: 0.102
